Measurements taken from publication PMC6848974 (Science translational medicine, 2019).

Test system: A/WSN/33-nanoLuc or Ca/09
Type: cell-based, influenza A virus

SMILES: O=c1nc(NO)ccn1[C@@H]1O[C@H](CO)[C@@H](O)[C@H]1O [NHC, N^4-hydroxycytidine]
- drug concentration resulting in virus extinction: ≥ 4 µM
- repeat exposure of NHC-experienced virus populations: again rapidly sterilizing
